Patent US20110160206A1, “TRI-SUBSTITUTED PYRIMIDINE COMPOUNDS AND THEIR USE AS PDE10 INHIBITORS” (priority 2009, published 2011)
Structures can show the parent of a compound that is named as a salt.

Biological target: T1, PDE10 (PDE10A) (Bos taurus, UniProt A0A3Q1MHJ4)
T1 construct: isolated and prepared from bovine corpus striatum; from tissue; host or cells: bovine corpus striatum
T1 sequence (A0A3Q1MHJ4 1-1068): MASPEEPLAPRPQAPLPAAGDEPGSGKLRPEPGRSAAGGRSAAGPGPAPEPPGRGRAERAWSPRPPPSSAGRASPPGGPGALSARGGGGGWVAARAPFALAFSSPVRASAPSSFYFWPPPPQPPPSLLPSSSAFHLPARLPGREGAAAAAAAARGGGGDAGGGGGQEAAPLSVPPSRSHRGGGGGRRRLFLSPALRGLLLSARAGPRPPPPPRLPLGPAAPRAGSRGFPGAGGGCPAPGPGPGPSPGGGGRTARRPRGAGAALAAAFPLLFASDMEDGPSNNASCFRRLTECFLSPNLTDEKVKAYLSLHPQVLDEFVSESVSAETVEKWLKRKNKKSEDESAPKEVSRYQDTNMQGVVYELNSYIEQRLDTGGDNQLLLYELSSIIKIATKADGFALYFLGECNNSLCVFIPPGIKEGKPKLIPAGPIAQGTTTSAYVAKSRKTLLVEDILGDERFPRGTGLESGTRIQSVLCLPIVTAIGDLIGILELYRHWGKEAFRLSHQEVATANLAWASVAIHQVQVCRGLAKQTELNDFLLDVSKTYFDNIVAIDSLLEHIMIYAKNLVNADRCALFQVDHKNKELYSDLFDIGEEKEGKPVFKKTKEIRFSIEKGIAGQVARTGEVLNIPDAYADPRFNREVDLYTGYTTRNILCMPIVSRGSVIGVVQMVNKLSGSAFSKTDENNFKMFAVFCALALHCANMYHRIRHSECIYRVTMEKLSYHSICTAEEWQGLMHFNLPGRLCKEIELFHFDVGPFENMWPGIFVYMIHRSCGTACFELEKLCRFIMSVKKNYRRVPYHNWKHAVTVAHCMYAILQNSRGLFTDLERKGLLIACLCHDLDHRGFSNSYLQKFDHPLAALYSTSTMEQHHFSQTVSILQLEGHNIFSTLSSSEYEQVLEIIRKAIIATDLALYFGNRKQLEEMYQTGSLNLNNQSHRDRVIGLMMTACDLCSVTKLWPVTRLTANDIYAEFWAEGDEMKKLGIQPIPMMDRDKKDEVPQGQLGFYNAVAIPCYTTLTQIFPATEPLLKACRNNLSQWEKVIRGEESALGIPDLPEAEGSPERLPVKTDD
Assay: Measurement of PDE10 inhibitory activity (radiolabeled nucleotide PDE assay)
Type: biochemical
Details: PDE10A from bovine corpus striatum; [3H]cAMP 7 nM final; room temperature 90 min
Procedure: (1) The enzyme PDE10 (PDE10A) was isolated and prepared from bovine corpus striatum, according to the methods described in references Fujishige et al., Eur. J. Biochem., vol. […] The enzyme solution obtained was used for a PDE assay.
Specifically, the measurements of the inhibitory activities were carried out in the following method.
(Method) The test compounds were dissolved in dimethyl sulfoxide (DMSO). […] The final concentration of cAMP in the reaction mixtures was 7 nM. The reaction mixtures were incubated at room temperature for 90 min under dark conditions. After incubation, the reaction was stopped by adding 100 μL of methanol and resultant solutions were applied to filter plate containing Dowex (1×8 200-400) and centrifuged. 50 μL of the eluate together with wash eluate with additional 100 μL methanol was collected in another plate and the radioactivity was measured with 250 μL of scintillant.
(2) The compounds in the Examples below were tested for PDE inhibition using the Method described above.

Row | SMILES | IC50
1 | CN(C)c1nc2ccccc2nc1/C=C/c1nc(NC2CCOCC2)cc(N2CCCC2)n1 [Example 1.001, N,N-dimethyl-3-{(E)-2-[4-pyrrolidin-1-yl-6-(tetrahydro-2H-pyran-4-ylamino)pyrimidin-2-yl]vinyl}quinoxalin-2-amine dihydrochloride] | 0.1 nM
2 | COCCNc1cc(N2CCCC2)nc(/C=C/c2nc3ccccc3nc2N(C)C)n1 [Example 1.003, 3-((E)-2-{4-[(2-methoxyethyl)amino]-6-pyrrolidin-1-ylpyrimidin-2-yl}vinyl)-N,N-dimethylquinoxalin-2-amine] | 0.6 nM
3 | CN(C)c1nc2ccccc2nc1/C=C/c1nc(N[C@@H]2CCS(=O)(=O)C2)cc(N2CCCC2)n1 [Example 1.007, 3-[(E)-2-(4-{[(3R)-1,1-dioxidotetrahydro-3-thienyl]amino}-6-pyrrolidin-1-ylpyrimidin-2-yl)vinyl]-N,N-dimethylquinoxalin-2-amine] | 0.09 nM
4 | CN(c1nc2ccccc2nc1/C=C/c1nc(NC2CCOCC2)cc(N2CCCC2)n1)C1CC1 [Example 1.010, N-cyclopropyl-N-methyl-3-{(E)-2-[4-pyrrolidin-1-yl-6-(tetrahydro-2H-pyran-4-ylamino)pyrimidin-2-yl]vinyl}quinoxalin-2-amine] | 0.48 nM
5 | Cc1nc2ccccc2nc1/C=C/c1nc(N[C@H]2CC[C@](C)(O)CC2)cc(N2CCCC2)n1 [Example 1.020, trans-1-methyl-4-({2-[(E)-2-(3-methylquinoxalin-2-yl)vinyl]-6-pyrrolidin-1-ylpyrimidin-4-yl}amino)cyclohexanol] | 0.073 nM
6 | Cc1nc2ccccc2nc1/C=C/c1nc(N[C@H]2CC[C@H](CO)CC2)cc(N2CCCC2)n1 [Example 1.024, [trans-4-({2-[(E)-2-(3-methylquinoxalin-2-yl)vinyl]-6-pyrrolidin-1-ylpyrimidin-4-yl}amino)cyclohexyl]methanol] | 0.039 nM
7 | Cc1cc2nc(C)c(/C=C/c3nc(N[C@@H]4CCOC4)cc(N4CCCC4)n3)nc2cc1C [Example 1.041, 6-pyrrolidin-1-yl-N-[(3R)-tetrahydrofuran-3-yl]-2-[(E)-2-(3,6,7-trimethylquinoxalin-2-yl)vinyl]pyrimidin-4-amine] | 0.66 nM
8 | CO[C@H]1CC[C@H](Nc2cc(N3CCCC3)nc(/C=C/c3nc4ccc(F)cc4nc3C)n2)CC1 [Example 1.048, 2-[(E)-2-(6-fluoro-3-methylquinoxalin-2-yl)vinyl]-N-(trans-4-methoxycyclohexyl)-6-pyrrolidin-1-ylpyrimidin-4-amine dihydrochloride] | 0.04 nM
9 | Cc1nc2ccc(F)cc2nc1/C=C/c1nc(NC2CCOCC2)cc(N2CCCC2)n1 [Example 1.050, 2-[(E)-2-(7-fluoro-3-methylquinoxalin-2-yl)vinyl]-6-pyrrolidin-1-yl-N-(tetrahydro-2H-pyran-4-yl)pyrimidin-4-amine hydrochloride] | 0.14 nM
10 | Cc1ccc2nc(C)c(/C=C/c3nc(N[C@H]4CC[C@](C)(O)CC4)cc(N4CCCC4)n3)nc2c1 [Example 1.064, trans-4-({2-[(E)-2-(3,7-dimethylquinoxalin-2-yl)vinyl]-6-pyrrolidin-1-ylpyrimidin-4-yl}amino)-1-methylcyclohexanol] | 0.048 nM
11 | Cc1nc2ccc(C(F)(F)F)cc2nc1/C=C/c1nc(N[C@@H]2CCS(=O)(=O)C2)cc(N2CCCC2)n1 [Example 1.074, N-[(3R)-1,1-dioxidotetrahydro-3-thienyl]-2-{(E)-2-[3-methyl-7-(trifluoromethyl)quinoxalin-2-yl]vinyl}-6-pyrrolidin-1-ylpyrimidin-4-amine] | 0.0033 nM
12 | COc1ccc2nc(C)c(/C=C/c3nc(NC4CCOCC4)cc(N4CCCC4)n3)nc2c1 [Example 1.078, 2[(E)-2-(7-methoxy-3-methylquinoxalin-2-yl)vinyl]-6-pyrrolidin-1-yl-N-(tetrahydro-2H-pyran-4-yl)pyrimidin-4-amine dihydrochloride] | 0.047 nM
13 | Cc1nc2ccc(OC(F)(F)F)cc2nc1/C=C/c1nc(N[C@H]2CC[C@H](O)CC2)cc(N2CCCC2)n1 [Example 1.084, trans-4-[(2-{(E)-2-[3-methyl-7-(trifluoromethoxy)quinoxalin-2-yl]vinyl}-6-pyrrolidin-1-ylpyrimidin-4-yl)amino]cyclohexanol] | 0.011 nM
14 | Cc1cc2ccccc2nc1/C=C/c1nc(NC2CCOCC2)cc(N2CCCC2)n1 [Example 1.090, 2-[(E)-2-(3-methylquinolin-2-yl)vinyl]-6-pyrrolidin-1-yl-N-(tetrahydro-2H-pyran-4-yl)pyrimidin-4-amine] | 0.36 nM
15 | Cc1cc2ccccc2nc1/C=C/c1nc(N[C@@H]2CCS(=O)(=O)C2)cc(N2CCCC2)n1 [Example 1.093, N-[(3R)-1,1-dioxidotetrahydro-3-thienyl]-2-[(E)-2-(3-methylquinolin-2-yl)vinyl]-6-pyrrolidin-1-ylpyrimidin-4-amine] | 0.3 nM
16 | Oc1nc2ccccc2nc1/C=C/c1nc(NC2CCOCC2)cc(N2CCCC2)n1 [Example 1.094, 3-{(E)-2-[4-pyrrolidin-1-yl-6-(tetrahydro-2H-pyran-4-ylamino)pyrimidin-2-yl]vinyl}quinoxalin-2-ol hydrochloride] | 0.17 nM
17 | CN(C)c1nc2ccccc2nc1/C=C/c1nc(N2CCCC2)cc(N2CCOCC2)n1 [Example 1.095, N,N-dimethyl-3-[(E)-2-(4-morpholin-4-yl-6-pyrrolidin-1-ylpyrimidin-2-yl)vinyl]quinoxalin-2-amine] | 0.79 nM
18 | CN(C)c1nc2ccccc2nc1/C=C/c1nc(N2CCCC2)cc(N(C2CCOCC2)C2CC2)n1 [Example 1.099, 3-((E)-2-{4-[cyclopropyl(tetrahydro-2H-pyran-4-yl)amino]-6-pyrrolidin-1-ylpyrimidin-2-yl}vinyl)-N,N-dimethylquinoxalin-2-amine] | 0.1 nM
19 | CN(c1cc(N2CCCC2)nc(/C=C/c2nc3ccccc3nc2N(C)C2CC2)n1)C1CCOCC1 [Example 1.101, N-cyclopropyl-N-methyl-3-((E)-2-{4-[methyl(tetrahydro-2H-pyran-4-yl)amino]-6-pyrrolidin-1-ylpyrimidin-2-yl}vinyl)quinoxalin-2-amine] | 0.46 nM
20 | CO[C@H]1CC[C@H](Nc2cc(N3CCCC3)nc(CCc3nc4cc(C(F)(F)F)ccc4nc3C)n2)CC1 [Example 4.003, N-(trans-4-methoxycyclohexyl)-2-{2-[3-methyl-7-(trifluoromethyl)quinoxalin-2-yl]ethyl}-6-pyrrolidin-1-ylpyrimidin-4-amine] | 0.031 nM
21 | Cc1nc2ccccc2nc1OCc1nc(N2CCCC2)cc(N(C)C2CCOCC2)n1 [Example 5.002, N-methyl-2-{[(3-methylquinoxalin-2-yl)oxy]methyl}-6-pyrrolidin-1-yl-N-(tetrahydro-2H-pyran-4-yl)pyrimidin-4-amine hydrochloride] | 0.61 nM
22 | Cc1nc2ccccc2nc1OCc1cc(NC2CCOCC2)nc(N2CCCC2)n1 [Example 6.001, 6-[(3-methylquinoxalin-2-yl)oxy]methyl-2-pyrrolidin-1-yl-N-(tetrahydro-2H-pyran-4-yl)pyrimidin-4-amine hydrochloride] | 0.22 nM
